# Patent US20240279602A1, “METHOD FOR PRODUCING CEREBRAL CORTICAL CELL PREPARATION DERIVED FROM HUMAN PLURIPOTENT STEM CELLS” (Kyoto University, priority 2021, published 2024)
# What was measured:
# [1] = test system: cerebral organoids; assay: RT-qPCR of marker gene expression after DAPT treatment; format: cell-based, human; settings: for expression of Hes1: single-cell DAPT method (step (iv))
# Method: Total RNA was obtained with an RNeasyMicroKit (QIAGEN), and reverse transcription reaction was performed with a SuperScript III First-Strand Synthesis System ([…]) in accordance with a protocol from the provider. Quantitative PCR was carried out by using TaqMan (TM) Gene Expression Master Mix (Thermo Fisher Scientific Inc.) or SYBR Green Master Mix (Thermo Fisher Scientific Inc.) in accordance with instruction from the manufacturer. The expression levels of genes were normalized to that for GAPDH by using the […] method.
# To analyze the influence of the DAPT treatment period on differentiation, cerebral organoids in week 7 of induction of differentiation were treated with 10 μM DAPT for 3 to 7 days according to a method or scheme shown in FIG. 16(A) (organoid DAPT method), and the variation of gene expression was analyzed by RT-qPCR; the results are shown in FIG. 16(B). The ordinate represents relative expression levels to GAPDH.
# Furthermore, organoids on Day 25, Day 32, Day 39, and Day 72 (the periods of induction of differentiation: about 4 weeks, 5 weeks, 6 weeks, and 10 weeks, respectively) were cultured in the presence or absence of DAPT for 3 days, and the cerebral organoids on Day 28 (4 wk), Day 35 (5 wk), Day 42 (6 wk), and Day 75 (10 wk) were analyzed for the expression levels of marker genes by RT-qPCR; the results of analysis of the relative expression levels of the markers are shown in FIG. 18. […] For the organoids in week 10, no reduction in expression of Ki67 was found, and no influence was found in expression of Satb2, too.
# In the “single-cell DAPT method (DAPT treatment is performed in step (iv))” in FIG. 24(B), cerebral organoids were screened on day 38 after the initiation of induction of differentiation and dispersed into single cells by the method described for step (iii) in Example 4, and the cells were then suspended in a culture medium obtained by adding 10 ng/mL GDNF, 20 ng/mL BDNF, 200 μM ascorbic acid, 400 μM dibutyryl-cAMP, and 30 μM Y-27632 to the culture medium in step (2b) with addition of DAPT at a concentration of 0 μM, 0.1 μM, 1 μM, or 10 μM. Subsequently, the cells were regathered by the method described for step (iv) in Example 4 in the presence of DAPT, and cultured for 1 day, 2 days, or 3 days. Thereafter, the culture medium was switched to a culture medium obtained by adding 10 ng/mL GDNF, 20 ng/mL BDNF, 200 μM ascorbic acid, and 400 μM dibutyryl-cAMP to the culture medium in step (2b), and culture was continued until day 10 after the initiation of reaggregation. The cells on day 3, day 4, or day 10 after the initiation of reaggregation were analyzed by RT-qPCR, and the cells on day 10 were analyzed by flow cytometry; the results are shown in FIGS. 25 to 27.
# [2] = test system: cerebral organoids; assay: Immunostaining of cell aggregates after DAPT treatment; format: cell-based, human
# Method: Organoids were fixed with 4% paraformaldehyde for 30 minutes, subjected to dehydration reaction with 30% (w/v) sucrose in PBS, and embedded with O.C.T. compound (Sakura Finetek Japan Co., Ltd.). Frozen sections were prepared in a thickness of 16 μm by using a cryostat (CM1850, Leica Biosystems Nussloch GmbH). Permeabilization was performed with 0.3% or 2% (v/v) Triton-X100, and, as necessary, antigen retrieval reaction was performed. Blocking was performed with Block ACE (KAC Co., Ltd.), and double- or triple-label staining was then performed. Primary antibodies and secondary antibodies for use in immunostaining were diluted to recommended concentrations before use.
# As illustrated by a scheme shown in FIG. 11(A), in step (ii), cerebral organoids were screened on day 33 after the initiation of induction of differentiation (Day 33), the culture medium was replaced with one obtained by adding 10 μM DAPT to the culture medium in step (2b), and suspension culture was performed at 37° C. under 5% CO2 for 3 days. As a result, cerebral cortical cell aggregates were obtained.
# The cerebral cortical cell aggregates (Day 36) and high-purity cerebral cortical cell aggregates (Day 40) were further immunostained for the cortical layer V/VI progenitor cell (deep layer) marker Ctip2, the telencephalon marker Foxg1, the neural stem cell (radial glia) marker […], and the proliferative cell marker Ki67.
# Organoids on Day 25, Day 32, Day 39, and Day 72 (the periods of induction of differentiation: about 4 weeks, 5 weeks, 6 weeks, and 10 weeks, respectively) were cultured in the presence or absence of DAPT for 3 days, and the organoids on Day 28 (4 wk), Day 42 (6 wk), and Day 75 (10 wk) were analyzed for different markers by immunostaining. […] Satb2 is a cortical layer II-IV progenitor cell (upper layer) marker.
# [3] = cerebral organoids in week 7, 10 μM DAPT for 3 to 7 days (organoid DAPT method)
# [4] = organoids in week 4 to week 6, DAPT for 3 days
# [5] = organoids in week 10, DAPT for 3 days
# [6] = organoids Day 33, 10 μM DAPT for 3 days, Day 36
structure (smiles),measurement,setting,value
"C[C@H](NC(=O)Cc1cc(F)cc(F)c1)C(=O)N[C@H](C(=O)OC(C)(C)C)c1ccccc1 [DAPT, N-[N-(3,5-difluorophenacetyl)-L-alanyl]-S-phenylglycine t-butyl ester]",expression of Ctip2,[1]; [3],enhanced as the DAPT treatment period was prolonged
same,"expressions of Pax6, Sox2, and Ki67",[1]; [3],declined as the DAPT treatment period was extended
same,expression of Ctip2,[1]; [4],enhanced expression
same,expression of Pax6 and Ki67,[1]; [4],reduced expression
same,expression of Ki67,[1]; [5],no reduction
same,expression of Satb2,[1]; [5],no influence
same,expression of Hes1,"[1]; 10 μM DAPT, 1-day and 2-day treatment, as culture proceeded",upregulated again
same,expression of Hes1,"[1]; 10 μM DAPT, 3-day treatment",suppressed over the 10 days
same,expression of Hes1,"[1]; DAPT 0.1 to 1 μM, 3 days",not sufficiently suppressed
same,cerebral cortex-like layered structure (immunostaining),[2]; [6],no cerebral cortex-like layered structure was found
same,expression of Ki67 (immunostaining),[2]; [6],almost no expression
same,number of Ctip2/Bf1-co-positive cells,[2]; [4],increased number
same,number of Ki67-positive cells,[2]; [4],decreased number
same,proportion of Ctip2-positive cells and that of Satb2-positive cells,[2]; [5],no significant change
